Values after ≈ are worked out from the molar mass of the structure shown. Where a SMILES comes first, the peptide text is derived from it. Bridges are numbered along the chain shown (N, C = ends). Roman numbers before positions name the chains, in order. [ ]: non-standard residue; d: D form. The star is where a group is joined. Tle = CC(C)(C)[C@H](N)C(=O)O; Hiv = CC(C)[C@H](O)C(=O)O; dDab = NCC[C@@H](N)C(=O)O; hSer = N[C@@H](CCO)C(=O)O; NHCH(CH2OH)2 = OCC(CO)N*; Orn = NCCC[C@H](N)C(=O)O; Dab = NCC[C@H](N)C(=O)O; Abu = CC[C@H](N)C(=O)O; Dap = NC[C@H](N)C(=O)O
Assays:
[1] = test system: human red blood cells (hRBC); assay: Hemolysis; format: cell-based; details: red cells of human, 1 h, 200
How it was run: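 Read-out is supernatant absorbance at 540 nm, normalised to full lysis by 2% Triton X-100 and zero lysis by PBS with 10% water. Peptides (200 μg/mL) were exposed to 20% v/v washed human erythrocytes at 37° C for 1 h under shaking.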

male ICR mice = assay: Tolerability in a mouse model (Maximum Tolerated Dose assay); format: in vivo; details: groups of 3
Experimental: The tolerability of the peptides was tested in a mouse model at Pharmacology Discovery Services Taiwan Ltd, Taipei, Taiwan. The peptides were administered subcutaneously (s.c.) at 30 mg/kg or 40 mg/kg, respectively; twice at a 12-hr interval, for assessment of possible adverse effects in the Maximum Tolerated Dose (MTD) assay in male ICR (Institute of Cancer Research) mice. The peptides were dissolved in 0.9% NaCl at the concentrations either of 6 or 8 mg/mL, respectively, based on the free base molecular weight. The pH values of dosing solutions were adjusted to 6.5-7.6 before s.c. administration. A dosing volume at 5 mL/kg and a concentration of 6 or 8 mg/mL, respectively, was applied. The fresh prepared stock solution were stored at 4° C. during the study. Male ICR mice weighing 23±3 g were provided by BioLasco Taiwan (under Charles River Laboratories Licensee). Animals were acclimated for 3 days prior to use and were confirmed to be in good health. The peptides were administered s.c. at 30 mg/kg or 40 mg/kg, respectively, twice at a 12-hr interval, to groups of 3 ICR male mice and observed for the presence of acute toxic symptoms (mortality, convulsions, tremors, muscle relaxation, sedation, etc.) and autonomic effects (diarrhea, salivation, lacrimation, vasodilation, piloerection, etc.) during the first 30 min. The peptides were administered again at a 12-hr (two total doses) interval, following the first dose. The animals were then observed again for the presence of acute toxic symptoms and autonomic effects during the first 30 min.

[2] = test system: Enterobacter cloacae 848840; format: cell-based; details: 848840
How it was run: (§1)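 CLSI broth microdilution in cation-adjusted Mueller-Hinton II broth with 0.002% polysorbate 80 (final), inoculum appr. 10^6 CFU/mL, peptides in serial two-fold dilutions. MIC (μg/mL) is the lowest concentration without visible growth after 18-20 h at 35° C.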

[3] = test system: Klebsiella pneumoniae SSI #3010; format: cell-based; details: SSI #3010
How it was run: as §1

[4] = test system: Escherichia coli ATCC 25922; format: cell-based; details: ATCC 25922
How it was run: as §1

Escherichia coli 926415 = format: cell-based; details: 926415
How it was run: as §1

[5] = test system: Acinetobacter baumannii 872842; format: cell-based; details: 872842
How it was run: as §1

[6] = test system: Acinetobacter baumannii DSM 30008; format: cell-based; details: DSM 30008
How it was run: as §1

[7] = test system: Klebsiella pneumoniae 968733; format: cell-based; details: 968733
How it was run: as §1

[8] = test system: Pseudomonas aeruginosa ATCC 27853; format: cell-based; details: ATCC 27853
How it was run: as §1

[9] = 2 × 30 mg/kg s.c. at a 12-hr interval

Compound | Hemolysis at 200 μg/mL [1] | Mortality and dose (male ICR mice; [9]) | MIC [2] | MIC [3] | MIC [4] | MIC (Escherichia coli 926415) | MIC [5] | MIC [6] | MIC [7] | MIC [8] | Mortality and dose (male ICR mice; 2 × 40 mg/kg s.c. at a 12-hr interval) | Klebsiella pneumoniae SSI #3010 MIC [3] | Escherichia coli ATCC 25922 MIC [4] | Acinetobacter baumannii DSM 30008 MIC [6] | Pseudomonas aeruginosa ATCC 27853 MIC [8]
CC(=O)N[C@H](C(=O)N[C@H]1CSSC[C@@H](C(=O)N[C@@H](Cc2ccc(O)cc2)C(N)=O)NC(=O)[C@H](C(C)C)NC(=O)[C@H](CO)NC(=O)[C@H](Cc2c[nH]c3ccccc23)NC(=O)[C@H](CCO)NC(=O)[C@@H](CCN)NC(=O)[C@H](CCC(=O)N[C@@H](CCN)C(=O)N[C@H](C(=O)N[C@@H](CCN)C(=O)N[C@H]2CCNC(=O)[C@H]([C@@H](C)O)NC(=O)[C@H](CCN)NC(=O)[C@H](CCN)NC(=O)[C@H](CC(C)C)NC(=O)[C@@H](CC(C)C)NC(=O)[C@H](CCN)NC2=O)[C@@H](C)O)NC(=O)[C@H](CCN)NC(=O)[C@H](CO)NC1=O)C(C)C [Ex. 65] (I: Ac-VCS[Dab]E[dDab][hSer]WSVCY-NH2 / II: [Dab]T[Dab][Dab][Dab][dL]L[Dab][Dab]T; disulfide I:2-I:11; amide I:5-II:N; lactam II:4-II:C) | <1% | 0/3 died at 2 × 30 mg/kg | 4 µg/mL (≈ 1.65 µM) | 0.25 µg/mL (≈ 0.103 µM) | 0.125 µg/mL (≈ 0.0515 µM) | 0.5 µg/mL (≈ 0.206 µM) | 0.25 µg/mL (≈ 0.103 µM) | 0.125 µg/mL (≈ 0.0515 µM) | 0.5 µg/mL (≈ 0.206 µM) | 0.125 µg/mL (≈ 0.0515 µM) |  |  |  |  | 
CC(C)C[C@@H]1NC(=O)[C@@H](CC(C)C)NC(=O)[C@H](CCN)NC(=O)[C@@H](NC(=O)[C@H](CN)NC(=O)[C@@H](NC(=O)[C@H](CCN)NC(=O)CC[C@H]2NC(=O)[C@H](CCCN)NC(=O)[C@H](CCN)NC(=O)[C@H](Cc3ccc(O)cc3)NC(=O)[C@@H](NC(=O)[C@@H](O)C(C)C)CSSC[C@@H](C(=O)N[C@H](C(N)=O)[C@@H](C)O)NC(=O)[C@H](C(C)(C)C)NC(=O)[C@H](CO)NC(=O)[C@H](Cc3c[nH]c4ccccc34)NC(=O)[C@H]([C@@H](C)O)NC2=O)[C@@H](C)O)CCNC(=O)[C@H]([C@@H](C)O)NC(=O)[C@H](CCN)NC(=O)[C@H](CCN)NC1=O [Ex. 161] (I: H-[Hiv]CY[Dab][Orn][dE]TWS[Tle]CT-NH2 / II: [Dab]T[Dap][Dab][Dab][dL]L[Dab][Dab]T; disulfide I:2-I:11; amide I:6-II:N; lactam II:4-II:C) | 1% | 0/3 died at 2 × 30 mg/kg | 1 µg/mL (≈ 0.414 µM) | 0.125 µg/mL (≈ 0.0518 µM) | 0.125 µg/mL (≈ 0.0518 µM) | 0.5 µg/mL (≈ 0.207 µM) | 0.25 µg/mL (≈ 0.104 µM) | 0.125 µg/mL (≈ 0.0518 µM) | 0.25 µg/mL (≈ 0.104 µM) | 0.25 µg/mL (≈ 0.104 µM) |  |  |  |  | 
CC[C@@H]1NC(=O)[C@@H](CC(C)C)NC(=O)[C@H](CCN)NC(=O)[C@@H](NC(=O)[C@H](CN)NC(=O)[C@@H](NC(=O)[C@H](CCN)NC(=O)CC[C@@H]2NC(=O)[C@H](CCN)NC(=O)[C@H](Cc3ccc(O)cc3)NC(=O)[C@@H](NC(=O)[C@@H](NC(C)=O)C(C)C)CSSC[C@@H](C(=O)N[C@@H](CO)C(N)=O)NC(=O)[C@H]([C@@H](C)CC)NC(=O)[C@H](CO)NC(=O)[C@H](Cc3c[nH]c4ccccc34)NC(=O)[C@H](CO)NC(=O)[C@@H](CCN)NC2=O)[C@@H](C)O)CCNC(=O)[C@H]([C@@H](C)O)NC(=O)[C@H](CCN)NC(=O)[C@H](CCN)NC1=O [Ex. 338] (I: Ac-VCY[Dab]E[dDab]SWSICS-NH2 / II: [Dab]T[Dap][Dab][Dab][dL][Abu][Dab][Dab]T; disulfide I:2-I:11; amide I:5-II:N; lactam II:4-II:C) | <1% |  | 0.0625 µg/mL (≈ 0.0262 µM) |  |  | 0.0625 µg/mL (≈ 0.0262 µM) | 0.0625 µg/mL (≈ 0.0262 µM) |  | 0.125 µg/mL (≈ 0.0524 µM) |  | 0/3 died at 2 × 40 mg/kg | 0.03125 µg/mL | 0.03125 µg/mL | 0.03125 µg/mL | 0.125 µg/mL
CC(C)C[C@@H]1NC(=O)[C@@H](CC(C)C)NC(=O)[C@H](CCN)NC(=O)[C@@H](NC(=O)[C@H](CN)NC(=O)[C@@H](NC(=O)[C@H](CCN)NC(=O)CC[C@@H]2NC(=O)[C@H](CCN)NC(=O)[C@H](Cc3ccc(O)cc3)NC(=O)[C@@H](NC(=O)[C@@H](O)C(C)C)CSSC[C@@H](C(=O)N[C@@H](CO)C(N)=O)NC(=O)[C@H](C(C)C)NC(=O)[C@H](CO)NC(=O)[C@H](Cc3c[nH]c4ccccc34)NC(=O)[C@H](CO)NC(=O)[C@@H](CCN)NC2=O)[C@@H](C)O)CCNC(=O)[C@H]([C@@H](C)O)NC(=O)[C@H](CCN)NC(=O)[C@H](CCN)NC1=O [Ex. 115] (I: H-[Hiv]CY[Dab]E[dDab]SWSVCS-NH2 / II: [Dab]T[Dap][Dab][Dab][dL]L[Dab][Dab]T; disulfide I:2-I:11; amide I:5-II:N; lactam II:4-II:C) | <1% | 0/3 died at 2 × 30 mg/kg | 0.0625 µg/mL (≈ 0.0265 µM) | 0.0625 µg/mL (≈ 0.0265 µM) | 0.0625 µg/mL (≈ 0.0265 µM) | 0.125 µg/mL (≈ 0.053 µM) | 0.125 µg/mL (≈ 0.053 µM) | 0.0625 µg/mL (≈ 0.0265 µM) | 0.25 µg/mL (≈ 0.106 µM) | 0.125 µg/mL (≈ 0.053 µM) |  |  |  |  | 
CC(=O)N[C@H](C(=O)N[C@H]1CSSC[C@@H](C(=O)N[C@@H](CO)C(N)=O)NC(=O)[C@H](C(C)C)NC(=O)[C@H](CO)NC(=O)[C@H](Cc2c[nH]c3ccccc23)NC(=O)[C@H](CCO)NC(=O)[C@@H](CCN)NC(=O)[C@H](CCC(=O)N[C@@H](CCN)C(=O)N[C@H](C(=O)N[C@@H](CCN)C(=O)N[C@H]2CCNC(=O)[C@H]([C@@H](C)O)NC(=O)[C@H](CCN)NC(=O)[C@H](CCN)NC(=O)[C@H](CC(C)C)NC(=O)[C@@H](CC(C)C)NC(=O)[C@H](CCN)NC2=O)[C@@H](C)O)NC(=O)[C@H](CCN)NC(=O)[C@H](Cc2ccc(O)cc2)NC1=O)C(C)C [Ex. 41] (I: Ac-VCY[Dab]E[dDab][hSer]WSVCS-NH2 / II: [Dab]T[Dab][Dab][Dab][dL]L[Dab][Dab]T; disulfide I:2-I:11; amide I:5-II:N; lactam II:4-II:C) | <1% | 0/3 died at 2 × 30 mg/kg | 0.25 µg/mL (≈ 0.103 µM) | 0.125 µg/mL (≈ 0.0515 µM) | 0.0625 µg/mL (≈ 0.0258 µM) | 0.25 µg/mL (≈ 0.103 µM) | 0.125 µg/mL (≈ 0.0515 µM) | 0.0625 µg/mL (≈ 0.0258 µM) | 0.125 µg/mL (≈ 0.0515 µM) | 0.25 µg/mL (≈ 0.103 µM) |  |  |  |  | 
CC(=O)N[C@H](C(=O)N[C@H]1CSSC[C@@H](C(=O)NC(CO)CO)NC(=O)[C@H](C(C)C)NC(=O)[C@H](CO)NC(=O)[C@H](Cc2c[nH]c3ccccc23)NC(=O)[C@H](CO)NC(=O)[C@@H](CCN)NC(=O)[C@H](CCC(=O)N[C@@H](CCN)C(=O)N[C@H](C(=O)N[C@@H](CN)C(=O)N[C@H]2CCNC(=O)[C@H]([C@@H](C)O)NC(=O)[C@H](CCN)NC(=O)[C@H](CCN)NC(=O)[C@H](CC(C)C)NC(=O)[C@@H](CC(C)C)NC(=O)[C@H](CCN)NC2=O)[C@@H](C)O)NC(=O)[C@H](CCN)NC(=O)[C@H](Cc2ccc(O)cc2)NC1=O)C(C)C [Ex. 116] (I: Ac-VCY[Dab]E[dDab]SWSVC-{NHCH(CH2OH)2} / II: [Dab]T[Dap][Dab][Dab][dL]L[Dab][Dab]T; disulfide I:2-I:11; amide I:5-II:N; lactam II:4-II:C) | <1% | 0/3 died at 2 × 30 mg/kg | 0.03125 µg/mL (≈ 0.0131 µM) | 0.03125 µg/mL (≈ 0.0131 µM) | 0.03125 µg/mL (≈ 0.0131 µM) | 0.125 µg/mL (≈ 0.0524 µM) | 0.0625 µg/mL (≈ 0.0262 µM) | 0.03125 µg/mL (≈ 0.0131 µM) | 0.25 µg/mL (≈ 0.105 µM) | 0.125 µg/mL (≈ 0.0524 µM) |  |  |  |  | 

Reference: patent publication US11629171B2, “Beta-hairpin peptidomimetics” (POLYPHOR AG, priority 2017, dated 2023)
